Test results reported in ChEMBL document CHEMBL1123893, “Synthesis and physicochemical properties of thiadiazolo[3,2-a]pyrimidinesulfonamides and thiadiazolo[3,2-a]triazinesulfonamides as candidates for topically effective carbonic anhydrase inhibitors” (J Med Chem, 1987).
≈ marks a conversion by molar mass, not a printed value.

Experiments:
[1] = biological target: Carbonic anhydrase
Description: Evaluated for its activity against carbonic anhydrase (CA) in anesthetized rabbits

[2] = physchem
Description: Compound was evaluated for its solubility in water

[3] = species on record: Oryctolagus cuniculus
[4] = physchem; conditions: buffer
Description: Evaluated for sulfonamide pKa, free acid water solubility

[5] = species on record: Oryctolagus cuniculus; conditions: rabbit, in vivo
Description: Evaluated for first order rate constant (Kin) for transcorneal penetration in anesthetized rabbits

[6] = species on record: Oryctolagus cuniculus; test: Evaluated for effect on intraocular pressure(IOP) in rabbit after 1 hour; type: functional, Eye
[7] = octanol/water, pH 7.4
Description: Evaluated for lipid solubility measured as partition coefficient at a pH 7.4 (CHCl3/buffer)

| SMILES | I50 [1] [nM] | Effect [3] [mmHg] | also measured |
| --- | --- | --- | --- |
| NS(=O)(=O)c1nn2c(O)cc(=O)nc2s1 | 37 |  |  |
| NS(=O)(=O)c1nn2c(=O)[nH]c(=O)nc2s1 | 20 | 0 | solubility ([2]; water): 4 mM (≈ 997 µg/mL); pKa [4]: 8.3 |
| COc1cc(=O)nc2sc(S(N)(=O)=O)nn12 | 50 | 0 |  |
| CCn1c(=O)nc2sc(S(N)(=O)=O)nn2c1=O | 20 | 0 |  |
| Cn1nc(S(N)(=O)=O)s/c1=N\C(=O)C(F)(F)F |  |  | solubility ([2]; water): 8 mM (≈ 2320 µg/mL); pKa [4]: 6.6; Kin [5]: 0.014 h⁻¹; Effect [6]: -3.1 mmHg |
| NS(=O)(=O)C1=NN2CCS(=O)(=O)N=C2S1 | 14 | 0 |  |
| Cn1c(=O)nc2sc(S(N)(=O)=O)nn2c1=O | 20 | -1 |  |
| NS(=O)(=O)C1=NN2C(=NC(=O)NS2(=O)=O)S1 | 50 | 0 |  |
| NS(=O)(=O)c1nn2c(=O)n(CCCl)c(=O)nc2s1 | 18 | 0 |  |
| CC(=O)/N=c1/sc(S(N)(=O)=O)nn1C [METHAZOLAMIDE] |  | -0.6 | solubility ([2]; buffer): 5 mM (≈ 1180 µg/mL); log D [7]: 0.06; Kin [5]: 0.006 h⁻¹ |
